Results: patent US20230382915A1, “GCN2 AND PERK KINASE INHIBITORS AND METHODS OF USE THEREOF” (Deciphera Pharmaceuticals, LLC, priority 2021, published 2023)

Key:
[1] = test system: GA-10 Burkitt lymphoma cells; experiment: Cell proliferation, combination with standard of care, GA-10; assay type: cell-based; conditions: Homo sapiens, with 50 nM dexamethasone, 96 h, FIG. 6C, read-out: inhibition of cell proliferation IC50, combination treatment
Procedure: H929, RPMI8226, GA-10 and DoHH-2 cells (catalog #CRL-9068) were obtained from the American Type Culture Collection (ATTC, Manassas, VA). H929 Cells were maintained in RPMI-1640 medium supplemented with 20% heat-inactivated fetal bovine serum (catalog #A3840002, ThermoFisher Scientific, Waltham, MA), 1% Penicillin/Streptomycin/L-Glutamine (catalog #10378016, ThermoFisher Scientific, Waltham, MA), and 0.05 mM 2-mercaptoethanol (catalog #21985-023, ThermoFisher Scientific, Waltham, MA). […]
For cell proliferation assay appropriate number of cells (Forty thousand cells for H929. Twenty thousand cells for RPMI8226 and GA-10. Eight thousand cells for DoHH-2) were seeded per well in 200 μL in respective medium were dispensed into a 96-well black clear bottom plate. […] Plates were read on a Synergy2 or equivalent reader (Biotek, Winooski VT) using an excitation of 540 nm and an emission of 600 nm. At the end of the incubation of DoHH-2, cell viability was determined using CellTiter-Glo® assay (Promega, Madison, WI). Luminescence was measured using EnVision MultiLabel Reader (PerkinElmer, Waltham, MA). Data was analyzed using GraphPad Prism software (GraphPad, San Diego, CA) to calculate IC50 values.

[2] = biological target: Recombinant GCN2 (EIF2AK4) (Homo sapiens (Human), UniProt Q9P2K8); experiment: Recombinant GCN2 activation assay; assay type: biochemical; conditions: FIG. 9A
Procedure: Recombinant GCN2 (EIF2AK4) (Carna Biosciences, Japan) was dephosphorylated by incubating with 16,000 units of lambda phosphatase (New England Biolabs, Ipswich, MA) for 3 h at 30° C. in 1×phosphatase reaction buffer. To measure Compound 2-mediated GCN2 modulation, 12.5 nM dephosphorylated GCN2 diluted in Kinase buffer (Invitrogen, Carlsbad, CA) was incubated with Compound 2 titer for 30 min at RT. Following incubation, 130 nM substrate (GFP-eIF2α) (ThermoFisher Scientific, Waltham, MA) and 0.05 mM ATP was added to the mixture and incubated for 60 min at RT. Reaction was stopped by the addition of 10 mM EDTA and phosphorylated eiF2a substrate was detected using 2 nM LanthaScreen Tb-anti-peIF2α (pSer52) antibody (ThermoFisher Scientific, Waltham, MA) then incubated in the dark. After a 60 min incubation at room temperature, TR-FRET was monitored using an excitation wavelength of 340 nm and emission wavelengths of 490 nm and 520 nm.

PERK enzyme = PERK enzyme (Homo sapiens (Human), UniProt Q9NZJ5); experiment: Recombinant PERK activation assay; assay type: biochemical; conditions: FIG. 9B
Procedure: To measure Compound 2-mediated PERK modulation, 200 nM PERK enzyme (Enzo, Farmingdale, NY) was incubated with Compound 2 titer for 30 min at RT. Following incubation, 200 nM substrate (GFP-eIF2α) (ThermoFisher Scientific, Waltham, MA) and 1 mM ATP was added to the mixture and incubated for 60 min at RT. Reaction was stopped by the addition of 10 mM EDTA and phosphorylated eiF2a substrate was detected using 2 nM LanthaScreen Tb-anti-peIF2α (pSer52) antibody (ThermoFisher Scientific, Waltham, MA) then incubated in the dark. After a 60 min incubation at room temperature, TR-FRET was monitored using an excitation wavelength of 340 nm and emission wavelengths of 490 nm and 520 nm.

HT-1080 spheroids = experiment: Spheroid Western blot assay, HT-1080; assay type: cell-based
Procedure: NSCLC cell lines H358 (catalog #CRL-5807) and H2030 (catalog #CRL-5914), and fibrosarcoma cell line HT-1080 (catalog […]) were obtained from the American Type Culture Collect (ATTC, Manassas, VA). Cells were grown in RPMI-1640 medium supplemented with 10% heat-inactivated fetal bovine serum and 1% Penicillin/Streptomycin/L-Glutamine (Invitrogen, Carlsbad, CA) at 37° C., 5% CO2, and 95% humidity and maintained at 50-80% confluency until use. Cells were plated at 500,000 cells/well in 24-well Elplasia plates (Corning, Glendale, AZ) with complete growth media at 1 mL/well and incubated overnight at 37° C., 5% CO2, and 95% humidity to form spheroids. The next day, serial dilutions of test compounds were prepared in complete growth media and 500 μL existing media was removed from each well and replaced with fresh media containing compound titers. Spheroids were then incubated with test compounds for 4 hours or 24 hours under the same conditions. […] Western blots were performed to quantify phospho-GCN2 (R&D Systems, Minneapolis, MN), ATF4, CHOP, cleaved PARP, cleaved Caspase 3 and 7, and beta-Actin (Cell Signaling Technology, Danvers, MA). […]

Chain of Recombinant GCN2 (EIF2AK4) (Q9P2K8 whole entry): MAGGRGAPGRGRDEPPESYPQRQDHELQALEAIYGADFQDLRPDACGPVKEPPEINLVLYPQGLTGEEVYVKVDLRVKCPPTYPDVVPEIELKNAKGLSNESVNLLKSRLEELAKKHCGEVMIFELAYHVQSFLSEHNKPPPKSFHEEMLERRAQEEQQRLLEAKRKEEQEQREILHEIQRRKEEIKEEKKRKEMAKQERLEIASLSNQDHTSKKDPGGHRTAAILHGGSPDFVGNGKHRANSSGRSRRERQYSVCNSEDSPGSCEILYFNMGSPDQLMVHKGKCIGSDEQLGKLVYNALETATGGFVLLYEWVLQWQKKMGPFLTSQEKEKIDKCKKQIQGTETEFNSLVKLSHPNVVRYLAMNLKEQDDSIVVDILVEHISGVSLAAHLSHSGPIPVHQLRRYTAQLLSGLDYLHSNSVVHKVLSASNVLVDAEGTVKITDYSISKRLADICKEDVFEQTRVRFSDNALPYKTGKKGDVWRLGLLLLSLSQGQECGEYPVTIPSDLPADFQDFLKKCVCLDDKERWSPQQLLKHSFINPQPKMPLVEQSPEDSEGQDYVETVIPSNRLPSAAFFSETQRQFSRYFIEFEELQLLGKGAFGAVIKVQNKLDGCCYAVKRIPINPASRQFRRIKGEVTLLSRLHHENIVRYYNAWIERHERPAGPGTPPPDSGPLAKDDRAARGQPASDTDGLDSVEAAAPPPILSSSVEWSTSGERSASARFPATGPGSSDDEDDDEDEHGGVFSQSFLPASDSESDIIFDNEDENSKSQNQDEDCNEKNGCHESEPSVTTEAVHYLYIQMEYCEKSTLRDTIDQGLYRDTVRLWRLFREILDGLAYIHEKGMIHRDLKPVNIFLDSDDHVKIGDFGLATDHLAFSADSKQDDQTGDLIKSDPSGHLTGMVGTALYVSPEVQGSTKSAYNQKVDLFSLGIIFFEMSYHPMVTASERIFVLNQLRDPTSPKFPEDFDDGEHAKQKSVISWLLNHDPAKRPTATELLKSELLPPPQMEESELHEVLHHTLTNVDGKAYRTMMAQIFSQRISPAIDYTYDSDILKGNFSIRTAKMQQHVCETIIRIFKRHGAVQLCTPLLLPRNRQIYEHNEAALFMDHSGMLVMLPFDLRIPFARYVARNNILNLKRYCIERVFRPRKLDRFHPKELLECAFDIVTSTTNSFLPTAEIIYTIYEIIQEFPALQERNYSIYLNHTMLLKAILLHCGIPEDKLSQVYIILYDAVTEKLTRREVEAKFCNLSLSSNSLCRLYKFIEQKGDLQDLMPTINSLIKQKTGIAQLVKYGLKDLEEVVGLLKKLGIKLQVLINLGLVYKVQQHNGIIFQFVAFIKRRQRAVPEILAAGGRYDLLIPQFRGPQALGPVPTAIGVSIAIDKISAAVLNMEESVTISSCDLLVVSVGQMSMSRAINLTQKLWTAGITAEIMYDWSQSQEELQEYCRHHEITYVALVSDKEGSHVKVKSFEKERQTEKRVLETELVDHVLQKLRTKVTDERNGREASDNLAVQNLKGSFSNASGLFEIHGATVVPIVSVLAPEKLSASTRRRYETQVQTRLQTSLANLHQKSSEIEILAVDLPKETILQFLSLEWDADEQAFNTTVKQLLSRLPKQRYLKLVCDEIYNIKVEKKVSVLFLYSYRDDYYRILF
Chain of PERK enzyme (Q9NZJ5 30-1116): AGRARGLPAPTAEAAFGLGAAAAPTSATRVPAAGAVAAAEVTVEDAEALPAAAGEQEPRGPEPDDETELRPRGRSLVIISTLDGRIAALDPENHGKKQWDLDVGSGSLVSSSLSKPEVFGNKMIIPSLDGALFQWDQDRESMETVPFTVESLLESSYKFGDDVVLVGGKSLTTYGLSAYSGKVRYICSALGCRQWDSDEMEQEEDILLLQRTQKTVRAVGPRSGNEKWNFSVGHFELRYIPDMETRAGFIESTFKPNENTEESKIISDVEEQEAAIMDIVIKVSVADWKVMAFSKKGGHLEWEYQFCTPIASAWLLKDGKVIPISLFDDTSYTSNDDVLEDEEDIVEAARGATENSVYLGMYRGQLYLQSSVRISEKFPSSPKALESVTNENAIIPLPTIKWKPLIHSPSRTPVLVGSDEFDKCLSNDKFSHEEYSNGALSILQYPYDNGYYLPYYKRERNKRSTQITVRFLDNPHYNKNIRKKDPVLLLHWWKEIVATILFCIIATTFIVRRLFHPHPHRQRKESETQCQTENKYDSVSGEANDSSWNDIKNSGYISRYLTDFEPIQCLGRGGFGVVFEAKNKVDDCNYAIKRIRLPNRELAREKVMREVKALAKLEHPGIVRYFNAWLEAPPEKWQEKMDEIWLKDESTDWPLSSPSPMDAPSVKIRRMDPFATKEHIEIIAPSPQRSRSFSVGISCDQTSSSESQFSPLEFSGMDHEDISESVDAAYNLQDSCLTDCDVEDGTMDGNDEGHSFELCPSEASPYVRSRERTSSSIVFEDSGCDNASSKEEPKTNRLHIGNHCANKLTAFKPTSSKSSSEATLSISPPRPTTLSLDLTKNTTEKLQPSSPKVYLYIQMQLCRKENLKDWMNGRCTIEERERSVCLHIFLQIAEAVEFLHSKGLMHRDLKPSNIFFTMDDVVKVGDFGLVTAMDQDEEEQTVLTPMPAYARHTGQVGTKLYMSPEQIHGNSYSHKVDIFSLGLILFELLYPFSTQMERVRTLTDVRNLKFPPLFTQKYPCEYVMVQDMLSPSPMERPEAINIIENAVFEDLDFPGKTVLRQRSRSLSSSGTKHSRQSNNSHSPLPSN

Cn1cc(-c2cccc(NS(=O)(=O)c3cc(Cl)cc(CO)c3Cl)c2F)c2c(N)ncnc21 [Example 2, N-(3-(4-amino-7-methyl-7H-pyrrolo[2,3-d]pyrimidin-5-yl)-2-fluorophenyl)-2,5-dichloro-3-(hydroxymethyl)benzenesulfonamide]
IC50 [1]: 4 nM
concentrations at which GCN2 enzyme is activated [2]: 0.05 to 3 nM
concentrations at which recombinant GCN2 activity is inhibited [2]: above 10 nM
activation of GCN2 enzyme, % of control ([2]; at 0.05-3 nM): up to 250 % of control
concentrations at which PERK enzyme is activated (PERK enzyme): 0.05 to 6 nM
concentrations at which recombinant PERK activity is inhibited (PERK enzyme): above 3 μM
activation of PERK enzyme, % of control (PERK enzyme; at 0.05-6 nM): up to 250 % of control
upregulation of ATF4 (Western blot quantification) (HT-1080 spheroids): ≤ 15 fold
